Reference: ChEMBL document CHEMBL4840351 (J Med Chem, 2021)

Experiments:
[1] = tested on: TMD8; assay: Induction of cell cycle arrest in human TMD8 cells assessed as accumulation of cells at G1 phase at 3 nM incubated for 48 hrs by PI staining based flow cytometric analysis (reference value: 57.66 %); assay type: functional
[2] = tested on: TMD8; assay: Induction of cell cycle arrest in human TMD8 cells assessed as accumulation of cells at G1 phase at 300 nM incubated for 48 hrs by PI staining based flow cytometric analysis (reference value: 57.66 %); assay type: functional
[3] = target: Cytochrome P450 2D6 (Homo sapiens, UniProt P10635); assay: Inhibition of CYP2D6 in human liver microsomes using bufuralol as substrate incubated for 10 mins in presence of NADPH by LC-MS/MS analysis; assay type: ADME
[4] = target: T1, Tyrosine-protein kinase BTK (Homo sapiens, UniProt Q06187); assay: Inhibition of BTK in human TMD8 cells assessed as reduction in BTK autophosphorylation at Tyr 223 residue after 4 hrs by Western blot analysis; assay type: cell-based
[5] = Receptor occupancy at BTK in spleen of ICR mouse at 15 mg/kg, po after 24 hrs by ELISA; assay type: functional
[6] = target: Epidermal growth factor receptor (Homo sapiens, UniProt P00533); assay: Inhibition of N-terminal DYKDDDD-tagged EGFR (669 to 1210 residues) (unknown origin) expressed in Sf21 insect cells using NH2-ETVYSEVRK-biotin as substrate preincubated for 1 hr followed by ATP addition and measured after 2 hrs by ELISA
[7] = Toxicity in SFP CD-1 mouse assessed as change in body weight at 10 to 1280 mg/kg, po administered for 7 days; assay type: organism-based; conditions: in vivo, 168 h, dose 10-1280 mg/kg, time 7 day
[8] = tested on: TMD8; assay: Antiproliferative activity against human TMD8 cells assessed as reduction in cell viability incubated for 72 hrs by celltiter-glo assay; conditions: TMD8, 72 h
[9] = Toxicity in SFP CD-1 mouse assessed as change in temperature at 10 to 1280 mg/kg, po administered for 7 days; assay type: organism-based; conditions: in vivo, 168 h, dose 10-1280 mg/kg, time 7 day
[10] = AUC in Sprague-Dawley rat at 5 mg/kg, po measured upto 24 hrs by LC/MS/MS analysis; assay type: ADME, organism-based; design: route oral, dose 5 mg/kg, time <=24; conditions: in vivo
[11] = Receptor occupancy at BTK in PBMC of ICR mouse at 15 mg/kg, po after 24 hrs by ELISA; assay type: functional
[12] = tested on: MOLM-13; assay: Antiproliferative activity against human MOLM-13 cells assessed as reduction in cell viability incubated for 72 hrs by celltiter-glo assay; conditions: MOLM-13, 72 h
[13] = Oral bioavailability in Sprague-Dawley rat at 5 mg/kg measured upto 24 hrs by LC/MS/MS analysis; assay type: ADME, organism-based; conditions: in vivo
[14] = target: T1, Tyrosine-protein kinase BTK; assay: Inhibition of full-length N-terminal GST tagged BTK (2 to 659 residues) (unknown origin) expressed in Sf21 insect cells using NH2-ETVYSEVRK-biotin as substrate preincubated for 1 hr followed by ATP addition and measured after 2 hrs by ELISA
[15] = tested on: SU-DHL-2; assay: Antiproliferative activity against human SUDHL2 cells assessed as reduction in cell viability incubated for 72 hrs by celltiter-glo assay; conditions: SU-DHL-2, 72 h
[16] = tested on: Rec1; assay: Antiproliferative activity against human REC-1 cells assessed as reduction in cell viability incubated for 72 hrs by celltiter-glo assay; conditions: Rec1, 72 h
[17] = target: Tyrosine-protein kinase Lyn (Homo sapiens, UniProt P07948); assay: Inhibition of LYN (unknown origin)
[18] = AUC(0 to 8 hrs) in CB-17 SCID mouse xenografted with human TMD8 cells at 7.5 mg/kg, po bid administered for 21 days; assay type: ADME, organism-based; design: route oral, time 21 day, dose 7.5 mg/kg; conditions: in vivo
[19] = Toxicity in SFP CD-1 mouse assessed as change in animal color at 10 to 1280 mg/kg, po administered for 7 days; assay type: organism-based; conditions: in vivo, 168 h, dose 10-1280 mg/kg, time 7 day
[20] = Clearance in Sprague-Dawley rat at 5 mg/kg, iv measured upto 24 hrs by LC/MS/MS analysis; assay type: ADME, organism-based; conditions: in vivo
[21] = Toxicity in SFP CD-1 mouse assessed as pathological change in visceral organs at 10 to 1280 mg/kg, po administered for 7 days by H and E staining based assay; assay type: organism-based; conditions: in vivo, 168 h, dose 10-1280 mg/kg, time 7 day
[22] = tested on: TMD8; assay: Induction of cell cycle arrest in human TMD8 cells assessed as accumulation of cells at G1 phase at 30 nM incubated for 48 hrs by PI staining based flow cytometric analysis (reference value: 57.66 %); assay type: functional
[23] = target: T2, Tyrosine-protein kinase ITK/TSK (Homo sapiens, UniProt Q08881); assay: Inhibition of full-length N-terminal GST-tagged ITK (2 to 620 residues) (unknown origin) expressed in Sf21 insect cells using NH2-ETVYSEVRK-biotin as substrate preincubated for 1 hr followed by ATP addition and measured after 2 hrs by ELISA
T2 sequence (Q08881 whole entry): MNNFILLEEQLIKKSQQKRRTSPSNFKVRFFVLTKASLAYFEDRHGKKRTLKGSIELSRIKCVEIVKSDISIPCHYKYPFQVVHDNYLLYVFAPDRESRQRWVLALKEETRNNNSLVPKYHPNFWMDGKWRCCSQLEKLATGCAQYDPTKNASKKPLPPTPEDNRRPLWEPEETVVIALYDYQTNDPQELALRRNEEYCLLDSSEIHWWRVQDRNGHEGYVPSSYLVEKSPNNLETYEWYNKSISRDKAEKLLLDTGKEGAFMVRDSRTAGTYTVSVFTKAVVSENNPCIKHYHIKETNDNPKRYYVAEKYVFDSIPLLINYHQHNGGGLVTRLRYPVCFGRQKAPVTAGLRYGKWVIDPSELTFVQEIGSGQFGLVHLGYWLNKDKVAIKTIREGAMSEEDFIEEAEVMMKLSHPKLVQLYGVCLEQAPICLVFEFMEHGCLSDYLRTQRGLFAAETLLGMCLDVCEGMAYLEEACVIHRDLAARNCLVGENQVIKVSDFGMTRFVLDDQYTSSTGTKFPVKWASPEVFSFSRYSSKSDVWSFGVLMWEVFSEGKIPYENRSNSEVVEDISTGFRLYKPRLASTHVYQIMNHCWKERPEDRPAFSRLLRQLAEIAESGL

[24] = target: Cytochrome P450 2C19 (Homo sapiens, UniProt P33261); assay: Inhibition of CYP2C19 in human liver microsomes using S-mephenytoin as substrate incubated for 10 mins in presence of NADPH by LC-MS/MS analysis; assay type: ADME
[25] = Toxicity in SFP CD-1 mouse assessed as mortality at 10 to 1280 mg/kg, po administered for 7 days; assay type: organism-based; conditions: in vivo, 168 h, dose 10-1280 mg/kg, time 7 day
[26] = target: Tyrosine-protein kinase Blk (Homo sapiens, UniProt P51451); assay: Inhibition of BLK (unknown origin) at 1 uM relative to control
Sequence of Tyrosine-protein kinase Blk (P51451 2-505 limits assumed): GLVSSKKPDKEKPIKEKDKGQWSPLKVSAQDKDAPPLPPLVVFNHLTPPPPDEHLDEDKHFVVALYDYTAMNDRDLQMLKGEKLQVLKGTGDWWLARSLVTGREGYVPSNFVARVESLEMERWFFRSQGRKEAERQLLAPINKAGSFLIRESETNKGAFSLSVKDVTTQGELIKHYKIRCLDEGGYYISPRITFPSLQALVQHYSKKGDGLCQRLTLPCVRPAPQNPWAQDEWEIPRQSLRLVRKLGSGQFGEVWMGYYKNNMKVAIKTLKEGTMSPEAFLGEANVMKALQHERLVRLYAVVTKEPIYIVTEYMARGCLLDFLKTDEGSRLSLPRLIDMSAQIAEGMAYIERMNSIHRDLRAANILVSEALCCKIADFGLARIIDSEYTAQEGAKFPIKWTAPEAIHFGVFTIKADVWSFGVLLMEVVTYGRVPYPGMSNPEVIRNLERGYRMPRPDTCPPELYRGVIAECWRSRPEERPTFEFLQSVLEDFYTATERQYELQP

T1 sequence (Q06187 whole entry): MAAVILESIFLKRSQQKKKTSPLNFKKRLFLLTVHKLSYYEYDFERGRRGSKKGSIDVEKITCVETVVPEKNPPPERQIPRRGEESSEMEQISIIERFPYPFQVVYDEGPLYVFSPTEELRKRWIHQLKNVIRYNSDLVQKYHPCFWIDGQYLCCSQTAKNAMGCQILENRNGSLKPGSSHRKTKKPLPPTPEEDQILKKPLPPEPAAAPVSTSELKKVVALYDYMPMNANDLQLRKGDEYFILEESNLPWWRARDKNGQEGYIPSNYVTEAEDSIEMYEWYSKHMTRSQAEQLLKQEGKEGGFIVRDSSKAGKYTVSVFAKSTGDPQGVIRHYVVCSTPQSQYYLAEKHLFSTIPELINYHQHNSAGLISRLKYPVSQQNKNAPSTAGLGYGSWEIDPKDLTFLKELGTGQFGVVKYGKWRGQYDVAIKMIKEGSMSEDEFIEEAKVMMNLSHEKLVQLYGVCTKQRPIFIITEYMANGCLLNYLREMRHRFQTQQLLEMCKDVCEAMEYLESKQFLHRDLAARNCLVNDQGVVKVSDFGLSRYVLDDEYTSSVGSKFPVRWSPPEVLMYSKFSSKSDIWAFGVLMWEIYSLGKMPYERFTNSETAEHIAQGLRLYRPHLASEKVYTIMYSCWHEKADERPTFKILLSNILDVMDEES
Sequence of Tyrosine-protein kinase Lyn (P07948 whole entry): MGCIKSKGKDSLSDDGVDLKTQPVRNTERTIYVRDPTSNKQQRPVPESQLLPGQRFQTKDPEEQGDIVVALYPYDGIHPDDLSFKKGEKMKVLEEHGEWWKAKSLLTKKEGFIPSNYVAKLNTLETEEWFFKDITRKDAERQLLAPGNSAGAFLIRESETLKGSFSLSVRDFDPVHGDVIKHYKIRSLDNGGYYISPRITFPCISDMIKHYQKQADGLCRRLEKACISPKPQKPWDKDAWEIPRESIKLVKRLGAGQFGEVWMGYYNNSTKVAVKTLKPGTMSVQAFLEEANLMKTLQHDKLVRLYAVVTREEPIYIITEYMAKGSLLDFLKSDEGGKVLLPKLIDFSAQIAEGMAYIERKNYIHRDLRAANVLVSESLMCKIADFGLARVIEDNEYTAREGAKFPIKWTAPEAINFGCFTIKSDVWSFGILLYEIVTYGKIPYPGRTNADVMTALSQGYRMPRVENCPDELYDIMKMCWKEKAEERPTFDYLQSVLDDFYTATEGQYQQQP
Sequence of Epidermal growth factor receptor (P00533 whole entry, the tested form may be a part): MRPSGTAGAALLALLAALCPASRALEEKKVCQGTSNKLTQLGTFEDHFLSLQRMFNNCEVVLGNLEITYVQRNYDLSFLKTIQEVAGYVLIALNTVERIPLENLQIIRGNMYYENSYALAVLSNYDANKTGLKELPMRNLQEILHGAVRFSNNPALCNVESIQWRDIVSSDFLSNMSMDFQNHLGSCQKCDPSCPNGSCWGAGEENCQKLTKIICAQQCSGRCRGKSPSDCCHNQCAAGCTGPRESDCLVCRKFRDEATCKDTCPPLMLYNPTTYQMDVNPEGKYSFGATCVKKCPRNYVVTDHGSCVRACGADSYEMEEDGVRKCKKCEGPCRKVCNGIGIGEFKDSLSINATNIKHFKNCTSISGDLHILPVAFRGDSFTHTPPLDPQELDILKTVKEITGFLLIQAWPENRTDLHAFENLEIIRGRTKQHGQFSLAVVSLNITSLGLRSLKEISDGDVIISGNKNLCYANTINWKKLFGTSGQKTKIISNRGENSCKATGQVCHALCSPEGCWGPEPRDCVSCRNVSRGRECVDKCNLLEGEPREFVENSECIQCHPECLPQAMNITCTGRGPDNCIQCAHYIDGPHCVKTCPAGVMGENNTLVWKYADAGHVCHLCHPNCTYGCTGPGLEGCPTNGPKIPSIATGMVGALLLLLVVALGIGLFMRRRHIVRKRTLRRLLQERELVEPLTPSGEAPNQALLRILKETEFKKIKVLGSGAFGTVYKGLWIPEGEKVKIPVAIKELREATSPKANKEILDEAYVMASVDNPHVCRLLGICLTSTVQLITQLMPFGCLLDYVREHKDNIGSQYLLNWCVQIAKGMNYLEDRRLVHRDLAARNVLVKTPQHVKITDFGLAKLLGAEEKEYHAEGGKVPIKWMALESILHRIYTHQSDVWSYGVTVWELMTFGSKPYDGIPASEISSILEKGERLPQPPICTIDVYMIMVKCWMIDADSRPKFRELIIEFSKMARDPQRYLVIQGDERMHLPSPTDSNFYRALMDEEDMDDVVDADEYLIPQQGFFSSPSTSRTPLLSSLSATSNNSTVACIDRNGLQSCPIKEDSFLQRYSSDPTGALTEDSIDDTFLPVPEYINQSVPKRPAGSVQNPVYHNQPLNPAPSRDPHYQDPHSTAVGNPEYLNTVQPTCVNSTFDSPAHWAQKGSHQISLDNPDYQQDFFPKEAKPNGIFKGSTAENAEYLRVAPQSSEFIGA
Sequence of Cytochrome P450 2D6 (P10635 whole entry): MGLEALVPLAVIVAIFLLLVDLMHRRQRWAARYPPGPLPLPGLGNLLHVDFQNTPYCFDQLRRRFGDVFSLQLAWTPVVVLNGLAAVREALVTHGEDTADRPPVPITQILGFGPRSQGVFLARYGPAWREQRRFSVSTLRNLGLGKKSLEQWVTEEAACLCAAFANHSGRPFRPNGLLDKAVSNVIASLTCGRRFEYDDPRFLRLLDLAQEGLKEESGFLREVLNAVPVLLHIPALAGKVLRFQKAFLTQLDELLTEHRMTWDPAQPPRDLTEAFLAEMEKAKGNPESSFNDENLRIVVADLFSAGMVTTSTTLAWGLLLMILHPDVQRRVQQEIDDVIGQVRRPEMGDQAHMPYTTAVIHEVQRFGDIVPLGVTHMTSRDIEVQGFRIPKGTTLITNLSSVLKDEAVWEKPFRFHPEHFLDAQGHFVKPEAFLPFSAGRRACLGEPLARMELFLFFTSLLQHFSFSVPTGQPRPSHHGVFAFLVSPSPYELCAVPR
Sequence of Cytochrome P450 2C19 (P33261 whole entry): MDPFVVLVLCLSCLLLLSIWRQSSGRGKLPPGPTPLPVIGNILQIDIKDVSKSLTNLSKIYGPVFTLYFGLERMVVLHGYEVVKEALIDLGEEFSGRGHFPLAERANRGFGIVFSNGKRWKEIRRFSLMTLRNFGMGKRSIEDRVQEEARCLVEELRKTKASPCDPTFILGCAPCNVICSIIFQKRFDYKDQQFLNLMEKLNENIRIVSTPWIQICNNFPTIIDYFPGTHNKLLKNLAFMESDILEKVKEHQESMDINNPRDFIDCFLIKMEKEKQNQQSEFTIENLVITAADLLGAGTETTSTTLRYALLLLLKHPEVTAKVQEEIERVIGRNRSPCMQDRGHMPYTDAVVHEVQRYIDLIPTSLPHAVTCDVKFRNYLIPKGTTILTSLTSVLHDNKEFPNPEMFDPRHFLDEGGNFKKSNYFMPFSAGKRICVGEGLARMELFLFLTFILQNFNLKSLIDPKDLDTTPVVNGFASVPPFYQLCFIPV

Compound: C=CC(=O)N1CCCC[C@H]1c1nc(-c2ccc(C(=O)Nc3cc(C(F)(F)F)ccn3)cc2)c(C(N)=O)n1N
- Activity [1]: 54.21%
- Activity [2]: 93.84%
- IC50 [3]: > 10 µM
- IC50 [4]: 8.96 nM
- Occ [5]: 58%
- IC50 [6]: 433 nM
- Activity [7]: Non-Toxic
- IC50 [8]: 25 nM
- Activity [9]: Non-Toxic
- AUC at 24 h [10]: 2000 ng·h/mL
- Occ [11]: 91%
- IC50 [12]: 3.7 µM
- bioavailability [13]: 31.4%
- IC50 [14]: 2.7 nM
- IC50 [15]: 5.5 µM
- IC50 [16]: 35 nM
- inhibition (INH) [17]: Not Active
- AUC at 504 h [18]: 1780 ng·h/mL
- Activity [19]: Non-Toxic
- clearance [20]: 13.4 mL/min/kg
- Activity [21]: Non-Toxic
- Activity [22]: 84.36%
- IC50 [23]: 847 nM
- IC50 [24]: > 10 µM
- Activity [25]: Non-Toxic
- inhibition [26]: > 80%
